Reference: the supplement of paper PMC4862054

Columns and labels:
Conditions in all cases: incubation time: 72 h
[1] = system: CAL-120; experiment: normalised viability (% of control), CellTiter-Blue; higher = more viable cells (about 100 = DMSO control)
Summary of the method: (§1)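 Breast cancer cell lines in 20 µl suspension were seeded onto 384-well plates pre-loaded with compound dissolved in 5 µl medium, then incubated 72 h. CellTiter-Blue reagent (2.5 µl) was added for 2 h at 37 °C and fluorescence read at 560/590 nm. Each plate was normalised to vehicle (100) and a positive kill control (0), with Z'-factor quality control. The value is normalised viability at one listed concentration of the series.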

[2] = system: HCC1143; experiment: as above
Summary of the method: as §1

[3] = system: HCC1599; experiment: as above
Summary of the method: as §1

[4] = system: MDA-MB-231; experiment: as above
Summary of the method: as §1

[5] = system: MDA-MB-436; experiment: as above
Summary of the method: as §1

[6] = system: MDA-MB-453; experiment: as above
Summary of the method: as §1

[7] = system: MDA-MB-468; experiment: as above
Summary of the method: as §1

[8] = system: SK-BR-3; experiment: as above
Summary of the method: as §1

[9] = system: BT-474; experiment: drug sensitivity score (DSS), CellTiter-Glo (DSS (AUC-based score)); higher = stronger drug effect (viability inhibition or cytotoxicity); extreme values may be limits of the assay
Summary of the method: (§2)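 Breast cancer cells were seeded into 384-well plates containing compound at 5 concentrations in 10-fold steps over a compound-specific 10,000-fold range and incubated 72 h. After CellTox Green and CellTiter-Glo readings, each plate was normalised to 0.1 % DMSO and a positive kill control. The drug sensitivity score rests on the area under the fitted dose-response curve.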

[10] = system: BT-549; experiment: as above
Summary of the method: as §2

[11] = system: CAL-148; experiment: as above
Summary of the method: as §2

[12] = system: CAL-85-1; experiment: as above
Summary of the method: as §2

[13] = system: DU-4475; experiment: as above
Summary of the method: as §2

[14] = system: HCC1143; experiment: as above
Summary of the method: as §2

[15] = system: HCC1599; experiment: as above
Summary of the method: as §2

[16] = system: HCC1937; experiment: as above
Summary of the method: as §2

[17] = system: HDQ-P1; experiment: as above
Summary of the method: as §2

[18] = system: Hs578T; experiment: as above
Summary of the method: as §2

[19] = system: MCF-10A; experiment: as above
Summary of the method: as §2

[20] = system: MDA-MB-231; experiment: as above
Summary of the method: as §2

[21] = system: MDA-MB-436; experiment: as above
Summary of the method: as §2

[22] = system: MDA-MB-453; experiment: as above
Summary of the method: as §2

[23] = system: MDA-MB-468; experiment: as above
Summary of the method: as §2

[24] = system: MFM-223; experiment: as above
Summary of the method: as §2

| SMILES | normalised viability ([1]; 10 nM) [%] | normalised viability ([1]; 1000 nM) [%] | normalised viability ([1]; 10000 nM) [%] | normalised viability ([2]; 10 nM) [%] | normalised viability ([2]; 1000 nM) [%] | normalised viability ([2]; 10000 nM) [%] | normalised viability ([3]; 10 nM) [%] | normalised viability ([3]; 1000 nM) [%] | normalised viability ([3]; 10000 nM) [%] | normalised viability ([4]; 10 nM) [%] | normalised viability ([4]; 1000 nM) [%] | normalised viability ([4]; 10000 nM) [%] | normalised viability ([5]; 10 nM) [%] | normalised viability ([5]; 1000 nM) [%] | normalised viability ([5]; 10000 nM) [%] | normalised viability ([6]; 3 nM) [%] | normalised viability ([6]; 30 nM) [%] | normalised viability ([6]; 100 nM) [%] | normalised viability ([7]; 10 nM) [%] | normalised viability ([7]; 1000 nM) [%] | normalised viability ([7]; 10000 nM) [%] | normalised viability ([8]; 10 nM) [%] | normalised viability ([8]; 1000 nM) [%] | normalised viability ([8]; 10000 nM) [%] | drug sensitivity score [9] | drug sensitivity score [10] | drug sensitivity score [11] | drug sensitivity score [12] | drug sensitivity score [13] | drug sensitivity score [14] | drug sensitivity score [15] | drug sensitivity score [16] | drug sensitivity score [17] | drug sensitivity score [18] | drug sensitivity score [19] | drug sensitivity score [20] | drug sensitivity score [21] | drug sensitivity score [22] | drug sensitivity score [23] | drug sensitivity score [24] |
| --- | --- | --- | --- | --- | --- | --- | --- | --- | --- | --- | --- | --- | --- | --- | --- | --- | --- | --- | --- | --- | --- | --- | --- | --- | --- | --- | --- | --- | --- | --- | --- | --- | --- | --- | --- | --- | --- | --- | --- | --- |
| Oc1ncc(N(CCCl)CCCl)c(O)n1 [Uracil mustard] | 88.3 | 87.5 | 82.5 | 78.4 | 84.8 | 92.6 | 82.1 | 78.4 | 92.7 | 100 | 103 | 89.5 | 103 | 76.6 | 97.8 | 103 | 107 | 101 | 109 | 97.5 | 85.7 | 109 | 95.1 | 79.8 | 0 | 0 | 0 | 0 | 0 | 0 | 0 | 0 | 0 | 0 | 0 | 0 | 0 | 0 | 0 | 0 |
| COc1cc2nccc(Oc3ccc(NC(=O)Nc4cc(C)on4)c(Cl)c3)c2cc1OC [Tivozanib] | 101 | 98.7 | 47.8 | 111 | 105 | 94.5 | 121 | 98.8 | 79 | 87.8 | 78.1 | 43.1 | 101 | 97.1 | 72.4 | 98 | 92.9 | 96.3 | 103 | 111 | 51.1 | 99.7 | 99.1 | 68.9 | 0 | 0 | 0 | 0 | 0 | 0 | 0 | 1.42 | 1.67 | 0 | 1.39 | 2.77 | 0 | 2.71 | 0 | 7.56 |
